Measured values taken from patent US4268505A, “Pharmaceutical composition comprising a nitrogen-containing polysaccharide and an antibiotic agent, and a method of treating an infectious disease therewith” (priority 1979, dated 1981).

Assays:
[1] = test system: cephaloridine-resistant strain of Proteus mirabilis; experiment: Therapeutical treatment of mice infected with cephaloridine-resistant Proteus mirabilis (Example 11); type: in vivo, male ICR-JCL mice; details: only cephaloridine 80 mg/kg i.p., 7th day
Method: Similar experiments of therapeutical treatment as in Example 9 was performed by using the present substance obtained by the procedures described in Example 1.
A cephaloridine-resistant strain of Proteus mirabilis obtained by the procedures described in Example 1 was inoculated into male ICR-JCL mice comprising 20 animals at a rate of 5×10^8 cells/animal. After 2 hours of the inoculation 80 mg/kg of cephalotidine was administered intraperitoneally into each of 10 mice (of 20 mice), and 50 mg/kg of the present substance and 80 mg/kg of cephaloridine were almost simultaneously administered to each of another 10 mice (of 20 mice) intraperitoneally.
After keeping the animals under usual conditions for 6 days, their rate of survival were observed on 7th day to find: […]

Escherichia coli = experiment: Minimum growth inhibiting concentration, agar plate method; type: cell-based; details: for Minimum growth inhibiting concentration: strain resistant to the respective drug
Method: (§1) The drug-resistant strains of bacterial species were obtained in the manner described below according to the concentration gradient plate culture (see "Chemotherapeutics and Resistant Bacteria", 1970, By Chikara Watanabe, Asakura Shoten).
(§2) The agar plates with drug concentration gradient ranging from 10 to 100 μg/ml were prepared, and each strain of the bacterial species to be tested was streaked or smeared. These plates were kept at 37° C. for several days and the colony formed in the high concentration area was isolated and again similarly inoculated to the plates. Such operation was repeated several times to obtain the bacterial strains resistant to the respective drugs.
(§3) The drug sensitivity of the drug-resistant strains and that of the original strains (sensitive strains) were compared by way of the minimum growth inhibiting concentration (hereinafter abbreviated as MIC) according to the Standard Method of the Japanese Chemotherapeutical Association (see "Chemotherapy" Vol. 22, No. 6, 1126 (1974), by MIC Determination Method Reform Committee). More specifically, double diluted systems of each drug were prepared and they were mixed with the heart-infusion agar medium (Nippon Eiyo Kagaku Co., Ltd.) to form the agar plates. Then a loopful of each strain, which had been cultured at 37° C. in Trypto-soy bouillon (Nippon Eiyo Kagaku Co., Ltd.) for 18 hr. was smeared on each the plate, and after culturing for 18 hr. at 37° C., the growth of the strain on each plate was examined.
MIC has apparently been reduced to half the level or less before addition of the present substance as will be seen in Table 3 of EXAMPLE 1. The amount of the present substance added is more than 10 μg/ml, preferably more than 100 μg/ml. The pH of the medium was maintained at 7.2±0.1 so that MIC would not be affected by pH of the medium.
Specimens of the drug-resistant bacterial strain were obtained according to the aforementioned concentration-gradient plate culture by using Staphylococcus aureus, Streptococcus faecalis, Escherichia coli, Salmonella enteritidis, Klebsiella pneumoniae and Pseudomonas aeruginosa. The MICs of the original bacterial strains and those of the bacterial strains which have developed resistance to the respective antibiotics are summarized in Table 2.

[2] = test system: aminobenzylpenicillin-resistant strain of Enterobacter aerogenes; experiment: Therapeutical treatment of mice infected with aminobenzylpenicillin-resistant Enterobacter aerogenes (Example 13); type: in vivo, male ICR-JCL mice; details: only aminobenzylpenicillin 100 mg/kg oral, 7th day
Method: After keeping the mice for 6 days under usual conditions, their rate of survival was determined on 7th day.

[3] = test system: aminobenzylpenicillin-resistant strain of Klebsiella pneumoniae; experiment: Therapeutical treatment of mice infected with aminobenzylpenicillin-resistant Klebsiella pneumoniae (Example 12); type: in vivo, male ICR-JCL mice; details: only aminobenzylpenicillin 100 mg/kg oral, 7th day
Method: Similar experiments as in Example 9 were performed using the present substance obtained by the procedures described in Example 1.
An aminobenzylpenicillin-resistant strain of Klebsiella pneumoniae obtained by the procedures described in Example 1 was inoculated intraperitoneally into two groups (one group comprising 10 animals) of male ICR-JCL mice at a rate of 1×10^8 cells/mouse.
After 2 hours of the inoculation, 100 mg/kg of aminobenzyl penicillin was orally administered to each mouse of one group, and 1,000 mg/kg of the present substance simply admixtured with 100 mg/kg of aminobenzyl penicillin were orally administered to each mouse of another group. After keeping the mice under usual conditions, the rate of survival of each group was observed on 7th day with the results: […]

Proteus mirabilis = experiment: Minimum growth inhibiting concentration, agar plate method; type: cell-based
Method: as §1, §2, §3
The amount of the present substance added is more than 10 μg/ml, preferably more than 100 μg/ml. The pH of the medium was maintained at 7.2±0.1 so that MIC would not be affected by pH of the medium.
Specimens of the drug-resistant bacterial strain were obtained according to the aforementioned concentration-gradient plate culture by using Staphylococcus aureus, Streptococcus faecalis, Escherichia coli, Salmonella enteritidis, Klebsiella pneumoniae and Pseudomonas aeruginosa.

[4] = strain resistant to the respective antibiotic (Table 2)

SMILES | rate of survival [1] | Minimum growth inhibiting concentration (MIC) (Escherichia coli; original strain) | Minimum growth inhibiting concentration (MIC) (Escherichia coli; [4]) | Minimum growth inhibiting concentration (Escherichia coli; present substance added at 10 μg/ml) | Minimum growth inhibiting concentration (Escherichia coli; present substance not added (Table 3)) | rate of survival [2] | rate of survival [3] | Minimum growth inhibiting concentration (MIC) (Proteus mirabilis; original strain) | Minimum growth inhibiting concentration (MIC) (Proteus mirabilis; [4]) | Minimum growth inhibiting concentration (Proteus mirabilis; strain resistant to the respective drug, present substance not added (Table 3))
O=C(Cc1cccs1)N[C@@H]1C(=O)N2C(C(=O)[O-])=C(C[n+]3ccccc3)CS[C@H]12 [CE, Cephaloridine] | 60% | 3.1 µg/mL | 25 µg/mL | 12.5 µg/mL | 25 µg/mL |  |  |  |  | 
CC1(C)S[C@@H]2[C@H](NC(=O)[C@H](N)c3ccccc3)C(=O)N2[C@H]1C(=O)O [AP, Aminobenzylpenicillin] |  |  |  |  |  | 70% | 40% | 0.8 µg/mL | 25 µg/mL | 25 µg/mL
